The values that follow come from ChEMBL document CHEMBL1201862, “PubChem BioAssay data set” (2004).

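Interpolation was linear, between the two tested concentrations surrounding the appropriate level; five concentrations were tested over 48 hours in 96-well plates. GI50 = concentration required for 50% inhibition of growth.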 Activity calls are given as the source filed them. Cut-off read from the data, not from the text of the source: active = GI50 up to about 1.1 µM and inactive = higher. Bounds are passed on as bounds.

Some test systems named below: UACC-257; SR; LOX IMVI; HCC 2998; SF-268; SK-MEL-28; UO-31; NCI/ADR-RES; BT-549; CAKI-1; MDA-N; EKVX; IGROV-1; MOLT-4; HT-29; K562; MCF7; M14; NCI-H23; HCT-15.
Experiment in all cases: DTP human tumour cell line panel, 48 h

The GI50 is the concentration that inhibits growth by half. For the molecule `COc1cc(/C=N/n2c(-c3ccccc3)nn(C(C)=O)c2=O)cc(OC)c1OC`, the GI50 in the assay with UACC-257 is 3.24 µM (inactive); in the assay with SR, 0.0875 µM (active); in the assay on LOX IMVI, 2.72 µM (inactive); in the assay on HCC 2998, 0.748 µM (active); in the assay with SF-268, 6.27 µM (inactive); in the assay on SK-MEL-28, 7.13 µM (inactive). The GI50 was 1.57 µM (inactive) with UO-31; 1.25 µM (inactive) in the assay with NCI/ADR-RES; 8.55 µM (inactive) in the assay with BT-549; 1.77 µM (inactive) in the assay on CAKI-1; 0.228 µM (active) with MDA-N; 8.81 µM (inactive) in the assay with EKVX. In addition, the GI50 with IGROV-1 is 2.11 µM (inactive); in the assay on MOLT-4, 0.714 µM (active); in the assay with HT-29 it was 0.405 µM (active); with K562 it was 0.557 µM (active); with MCF7, 0.684 µM (active); in the assay on M14, 2.14 µM (inactive). In addition, the GI50 in the assay with NCI-H23 is 4.07 µM (inactive); with HCT-15, 0.635 µM.

Consider `O=c1[nH]c2c(c(=O)[nH]1)SSC2`, for which the GI50 with UACC-257 is 4.99 µM (inactive); in the assay on SR, 0.275 µM (active); with LOX IMVI, 1.34 µM (inactive); with HCC 2998, 16.2 µM (inactive); in the assay on SF-268, 3.67 µM (inactive); with SK-MEL-28 it was 5.79 µM (inactive). The GI50 in the assay on UO-31 is 11.8 µM (inactive); with NCI/ADR-RES, 2.75 µM (inactive); in the assay with BT-549 it was 2.25 µM (inactive); with CAKI-1 it was 18.9 µM (inactive); in the assay with MDA-N, 1.66 µM (inactive); in the assay with EKVX it was 21.3 µM (inactive). For the same molecule, the GI50 with IGROV-1 is 22.3 µM (inactive); with MOLT-4, 1.3 µM (inactive); with HT-29, 19.6 µM (inactive); with K562, 0.74 µM (active); with MCF7 it was 17.4 µM (inactive); with M14, 2 µM (inactive). For the same molecule, the GI50 is 12.7 µM (inactive) with NCI-H23 and 27.7 µM in the assay with HCT-15.

Take `Cc1cc(C)n(-c2nc3ccccc3c(=O)[nH]2)n1`: the GI50 with UACC-257 is 33.6 µM (inactive); in the assay on SR, 0.906 µM (active); in the assay on LOX IMVI, 1.41 µM (inactive); in the assay with HCC 2998, 14.8 µM (inactive); in the assay with SF-268, 4.1 µM (inactive); in the assay with SK-MEL-28, 6.82 µM (inactive). In addition, the GI50 in the assay with UO-31 was 3.77 µM (inactive); in the assay on NCI/ADR-RES it was 1.53 µM (inactive); in the assay on BT-549 it was 18.8 µM (inactive); in the assay with CAKI-1, 3.02 µM (inactive); in the assay with MDA-N, 32.6 µM (inactive); in the assay with EKVX it was 5.42 µM (inactive). Besides, the GI50 with IGROV-1 was 1.5 µM (inactive); in the assay with MOLT-4, 1.6 µM (inactive); in the assay with HT-29 it was 2.74 µM (inactive); with K562, 1.64 µM (inactive); in the assay on MCF7, 3.78 µM (inactive); with M14, 3.75 µM (inactive). For the same molecule, the results for the GI50 with NCI-H23 and in the assay with HCT-15 were 7.96 µM (inactive) and 2.11 µM, respectively.

Regarding `CC(C)(C)OC(=O)/C=C/[C@@H](CCC(=O)/C=C/[C@H](/C=C\CCCC(=O)O)NC1(c2ccccc2)c2ccccc2-c2ccccc21)O[Si](C)(C)C(C)(C)C`, the GI50 with UACC-257 was 17.8 µM (inactive); in the assay on SR, 19.4 µM (inactive); with LOX IMVI it was 13.8 µM (inactive); with HCC 2998, 16.8 µM (inactive); in the assay on SF-268, 17.1 µM (inactive); in the assay on SK-MEL-28, 25.8 µM (inactive). For the same molecule, the GI50 in the assay with UO-31 is 15.2 µM (inactive); in the assay on NCI/ADR-RES, 10.8 µM (inactive); in the assay on BT-549 it was 16.5 µM (inactive); in the assay on CAKI-1, 17.9 µM (inactive); in the assay on MDA-N it was 17.1 µM (inactive); with EKVX, 19.2 µM (inactive). Also, the GI50 with IGROV-1 is 16.5 µM (inactive); in the assay with MOLT-4, 9.16 µM (inactive); in the assay with HT-29, 14.7 µM (inactive); in the assay with K562, 16 µM (inactive); with MCF7, 15.9 µM (inactive); in the assay on M14 it was 14 µM (inactive). For the same molecule, the results for the GI50 with NCI-H23 and in the assay on HCT-15 were 16.3 µM (inactive) and 12.3 µM, respectively.

With `CCc1ccc(/C=C\c2cc(OC)c(OC)c(OC)c2)cc1`, the GI50 with UACC-257 is 0.0268 µM (active); with SR, 0.00247 µM (active); in the assay with LOX IMVI, 0.0132 µM (active); in the assay with HCC 2998 it was 0.0492 µM (active); in the assay on SF-268 it was 0.149 µM (active); in the assay on SK-MEL-28, 0.0627 µM (active). The GI50 with UO-31 is 0.0355 µM (active); in the assay on NCI/ADR-RES, 0.00286 µM (active); in the assay on BT-549 it was 0.18 µM (active); in the assay on CAKI-1, 0.038 µM (active); in the assay on MDA-N, 0.00168 µM (active); in the assay on EKVX it was 0.887 µM (active). Moreover, the GI50 in the assay with IGROV-1 was 0.0493 µM (active); in the assay with MOLT-4, 0.043 µM (active); with HT-29 it was 0.00993 µM (active); in the assay on K562 it was 0.00845 µM (active); in the assay with MCF7, 0.0375 µM (active); with M14 it was 0.0502 µM (active). For the same molecule, the results for the GI50 in the assay on NCI-H23 and with HCT-15 were 0.0461 µM (active) and 0.0449 µM, respectively.

For the molecule `Cc1cc(C)c([S@@](=O)O[C@@H]2[C@H]3OC(C)(C)O[C@H]3O[C@@H]2[C@H]2COC(C)(C)O2)c(C)c1`, the GI50 in the assay with UACC-257 was 19.5 µM (inactive); in the assay with SR, 15.6 µM (inactive); in the assay on LOX IMVI, 14 µM (inactive); in the assay on HCC 2998 it was 22.9 µM (inactive); with SF-268, 31.9 µM (inactive); in the assay on SK-MEL-28, 29.1 µM (inactive). The GI50 with UO-31 was 17.6 µM (inactive); with NCI/ADR-RES it was 22 µM (inactive); in the assay on BT-549, 15.1 µM (inactive); in the assay on CAKI-1, 2.16 µM (inactive); in the assay with MDA-N, 26.6 µM (inactive); with EKVX, 20.4 µM (inactive). Moreover, the GI50 is 4.24 µM (inactive) in the assay with IGROV-1; 17 µM (inactive) in the assay on MOLT-4; 29.7 µM (inactive) in the assay with HT-29; 25.9 µM (inactive) in the assay with K562; 16.7 µM (inactive) in the assay with MCF7; 25.6 µM (inactive) in the assay on M14. Moreover, the values for the GI50 in the assay on NCI-H23 and in the assay on HCT-15 were 31.6 µM (inactive) and 42.9 µM, respectively.

For the molecule `O=C(/C=C\c1ccsc1)c1ccccc1`, the GI50 is 16.6 µM (inactive) in the assay on UACC-257; 2.38 µM (inactive) with SR; 2.21 µM (inactive) with LOX IMVI; 9.44 µM (inactive) in the assay on HCC 2998; 6.9 µM (inactive) in the assay on SF-268; 12.4 µM (inactive) with SK-MEL-28. The GI50 in the assay on UO-31 was 7.1 µM (inactive); in the assay with NCI/ADR-RES, 12.3 µM (inactive); with BT-549, 12.6 µM (inactive); in the assay with CAKI-1, 3.71 µM (inactive); in the assay with MDA-N, 12.4 µM (inactive); in the assay on EKVX, 12.9 µM (inactive). The GI50 was 6.9 µM (inactive) in the assay with IGROV-1; 2.94 µM (inactive) with MOLT-4; 4.06 µM (inactive) in the assay with HT-29; 4 µM (inactive) with K562; 1.74 µM (inactive) in the assay with MCF7; 8.47 µM (inactive) in the assay on M14. Also, the GI50 with NCI-H23 was 5.7 µM (inactive); in the assay on HCT-15, 3.61 µM.

`Cc1ccc(N(C=O)c2c([N+](=O)[O-])cc([N+](=O)[O-])c3c2=[N+]([O-])CN=3)cc1`: the GI50 was 21 µM (inactive) in the assay with UACC-257; 24.9 µM (inactive) with SR; 21.9 µM (inactive) in the assay on LOX IMVI; 14 µM (inactive) in the assay with HCC 2998; 36 µM (inactive) in the assay on SF-268; 49.4 µM (inactive) in the assay with SK-MEL-28. Moreover, the GI50 in the assay on UO-31 is 29.3 µM (inactive); in the assay on NCI/ADR-RES, 30.7 µM (inactive); in the assay on BT-549, 18.7 µM (inactive); in the assay with CAKI-1, 32.3 µM (inactive); with MDA-N, 27.5 µM (inactive); in the assay on EKVX, > 100 µM (inactive). Moreover, the GI50 with IGROV-1 is 38.8 µM (inactive); with MOLT-4, 23.9 µM (inactive); in the assay with HT-29, 49 µM (inactive); in the assay with K562 it was 27.3 µM (inactive); in the assay with MCF7 it was 21.2 µM (inactive); in the assay with M14, 20.8 µM (inactive). Further, the GI50 was 23.5 µM (inactive) with NCI-H23 and 15.4 µM in the assay with HCT-15.

Consider `O=[As]O`, for which the GI50 is > 48.6 µM (inactive) with UACC-257; 18.9 µM (inactive) in the assay on SR; > 47.9 µM (inactive) in the assay with LOX IMVI; > 100 µM (inactive) in the assay with HCC 2998; > 47.1 µM (inactive) in the assay on SF-268; > 59 µM (inactive) in the assay on SK-MEL-28. Also, the GI50 in the assay on UO-31 was > 100 µM (inactive); with NCI/ADR-RES it was > 100 µM (inactive); with BT-549, 41.3 µM (inactive); in the assay on CAKI-1, > 56.1 µM (inactive); in the assay with MDA-N, > 100 µM (inactive); in the assay on EKVX, > 60 µM (inactive). Also, the GI50 in the assay with IGROV-1 is 28 µM (inactive); in the assay on MOLT-4, > 56.8 µM (inactive); in the assay on HT-29, > 66.2 µM (inactive); with K562, 37.7 µM (inactive); in the assay on MCF7 it was 28.6 µM (inactive); with M14, > 50.5 µM (inactive). In addition, the GI50 is > 48.3 µM (inactive) in the assay on NCI-H23 and over 52.5 µM in the assay on HCT-15.

For `C=CCCC1CCCCNC1=S` (stereo not given), the GI50 in the assay on UACC-257, in the assay on SR, with LOX IMVI, in the assay on HCC 2998, in the assay on SF-268 and in the assay on SK-MEL-28 was > 10 µM (inactive) throughout. Also, the GI50 with UO-31, with NCI/ADR-RES, in the assay on BT-549, with CAKI-1, in the assay with MDA-N and in the assay on EKVX was > 10 µM (inactive) each time. The GI50 in the assay with IGROV-1, in the assay on MOLT-4, with HT-29, in the assay with K562, in the assay with MCF7 and in the assay on M14 was > 10 µM (inactive) throughout. Besides, the figures for the GI50 with NCI-H23 and with HCT-15 were > 10 µM (inactive) and over 10 µM, respectively.
